Measurements: patent US20220226299A1 (NIPPON CHEMIPHAR CO., LTD., priority 2019, published 2022)

The compounds below were run against T1, human Cav3.2 channels (Homo sapiens, UniProt O95180) (assay: T-type calcium blocking action: intracellular calcium (Fluo-4 AM fluorescence) in HEK293 cells steadily expressing human Cav3.2 channels). Conditions: HEK293 cells expressing human Cav3.2; KCl-stimulated calcium influx, Fluo-4 fluorescence; Tables 1 to 3.
T1 construct: human Cav3.2 channel ORF (Open Reading Frame) gene; expressed in transfected cells; host or cells: HEK293 cells (ATCC No. CRL-1573), pcDNA3.1(+) plasmid
Format: cell-based
Source text: T-Type Calcium Blocking Action
(1) Construction of Cells Steadily Expressing Human Cav3.2 Channels
A sequence obtained by adding HindIII site and a kozak sequence (GCCACC) to the 5′-side of human Cav3.2 channel ORF (Open Reading Frame) gene and adding a KpnI site to the 3′-side of the gene, was incorporated into pcDNA3.1(+) (Thermo Fisher Scientific, #V790-20), and the plasmid was introduced into HEK293 cells (ATCC No. CRL-1573) according to the protocol of FuGENE (registered trademark) HD Transfection Reagent (Promega, #E2311).
(2) Method for Measuring Intracellular Calcium Concentration
The cells steadily expressing human Cav3.2 channels produced by testing method (1) were seeded on a 96-well plate (Dulbecco's modified Eagle medium (DMEM) medium containing 10% fetal bovine serum (FBS) was used as a medium). The cells were seeded and cultured for 48 hours under conditions of 37° C. and 5% CO2. Thereafter, the cells were washed with buffer A in order to remove the medium. Each well was treated with 80 μL of a fluorescent dye solution produced by mixing 22 μg of a fluorescent calcium indicator, Fluo-4 AM (Dojindo Laboratories, #F311), 20 μL of DMSO, 1 μL of 10% Pluronic F-127 (Thermo Fisher Scientific, #P6866), and 4 mL of buffer A. The cells were allowed to stand for 45 minutes at room temperature under light-shielded conditions, and then washed with buffer B in order to completely replace the solution. 70 μL of DMSO having the same concentration as that of a test compound as a negative control and 70 μL of a mixture containing 1 μM of a known blocker RQ-00311651 and the test compound as a positive control were each added to each well in a form of being contained in the buffer B. The test compound was dissolved in 100% DMSO and added at a final concentration of 0.1%. Then, the cells were further allowed to stand at room temperature under light-shielded conditions for 15 minutes and placed in a microplate reader EnVision (PerkinElmer). Background fluorescence was measured in each well, and then a 5 μg/mL grammicidin solution was added to buffer B at 10 μL/well. After 90 seconds, baseline fluorescence was measured. Thereafter, 83.8 mM KCl was added to buffer B at 20 μL/well, and an increase in fluorescence caused by calcium influx generated by the stimulus was measured for 10 seconds. A blocking percentage was calculated from a maximum fluorescence increase value from a baseline, a logarithmic value of a compound concentration and blockery activity were plotted, and thereby an IC50 value was calculated. In the measurement, fluorescence at 510 nm that was emitted when the cells were irradiated with excitation light at 485 nm was observed.
Buffer A: 140 mM NaCl, 5 mM KCl, 1 mM MgCl2, 0.5 mM CaCl2, 10 mM Glucose, 10 mM HEPES, pH 7.3
Buffer B: 137.9 mM Choline-Cl, 4.1 mM KCl, 1 mM MgCl2, 0.5 mM CaCl2, 10 mM Glucose, 10 mM HEPES, pH 7.3

T1 sequence (O95180 whole entry): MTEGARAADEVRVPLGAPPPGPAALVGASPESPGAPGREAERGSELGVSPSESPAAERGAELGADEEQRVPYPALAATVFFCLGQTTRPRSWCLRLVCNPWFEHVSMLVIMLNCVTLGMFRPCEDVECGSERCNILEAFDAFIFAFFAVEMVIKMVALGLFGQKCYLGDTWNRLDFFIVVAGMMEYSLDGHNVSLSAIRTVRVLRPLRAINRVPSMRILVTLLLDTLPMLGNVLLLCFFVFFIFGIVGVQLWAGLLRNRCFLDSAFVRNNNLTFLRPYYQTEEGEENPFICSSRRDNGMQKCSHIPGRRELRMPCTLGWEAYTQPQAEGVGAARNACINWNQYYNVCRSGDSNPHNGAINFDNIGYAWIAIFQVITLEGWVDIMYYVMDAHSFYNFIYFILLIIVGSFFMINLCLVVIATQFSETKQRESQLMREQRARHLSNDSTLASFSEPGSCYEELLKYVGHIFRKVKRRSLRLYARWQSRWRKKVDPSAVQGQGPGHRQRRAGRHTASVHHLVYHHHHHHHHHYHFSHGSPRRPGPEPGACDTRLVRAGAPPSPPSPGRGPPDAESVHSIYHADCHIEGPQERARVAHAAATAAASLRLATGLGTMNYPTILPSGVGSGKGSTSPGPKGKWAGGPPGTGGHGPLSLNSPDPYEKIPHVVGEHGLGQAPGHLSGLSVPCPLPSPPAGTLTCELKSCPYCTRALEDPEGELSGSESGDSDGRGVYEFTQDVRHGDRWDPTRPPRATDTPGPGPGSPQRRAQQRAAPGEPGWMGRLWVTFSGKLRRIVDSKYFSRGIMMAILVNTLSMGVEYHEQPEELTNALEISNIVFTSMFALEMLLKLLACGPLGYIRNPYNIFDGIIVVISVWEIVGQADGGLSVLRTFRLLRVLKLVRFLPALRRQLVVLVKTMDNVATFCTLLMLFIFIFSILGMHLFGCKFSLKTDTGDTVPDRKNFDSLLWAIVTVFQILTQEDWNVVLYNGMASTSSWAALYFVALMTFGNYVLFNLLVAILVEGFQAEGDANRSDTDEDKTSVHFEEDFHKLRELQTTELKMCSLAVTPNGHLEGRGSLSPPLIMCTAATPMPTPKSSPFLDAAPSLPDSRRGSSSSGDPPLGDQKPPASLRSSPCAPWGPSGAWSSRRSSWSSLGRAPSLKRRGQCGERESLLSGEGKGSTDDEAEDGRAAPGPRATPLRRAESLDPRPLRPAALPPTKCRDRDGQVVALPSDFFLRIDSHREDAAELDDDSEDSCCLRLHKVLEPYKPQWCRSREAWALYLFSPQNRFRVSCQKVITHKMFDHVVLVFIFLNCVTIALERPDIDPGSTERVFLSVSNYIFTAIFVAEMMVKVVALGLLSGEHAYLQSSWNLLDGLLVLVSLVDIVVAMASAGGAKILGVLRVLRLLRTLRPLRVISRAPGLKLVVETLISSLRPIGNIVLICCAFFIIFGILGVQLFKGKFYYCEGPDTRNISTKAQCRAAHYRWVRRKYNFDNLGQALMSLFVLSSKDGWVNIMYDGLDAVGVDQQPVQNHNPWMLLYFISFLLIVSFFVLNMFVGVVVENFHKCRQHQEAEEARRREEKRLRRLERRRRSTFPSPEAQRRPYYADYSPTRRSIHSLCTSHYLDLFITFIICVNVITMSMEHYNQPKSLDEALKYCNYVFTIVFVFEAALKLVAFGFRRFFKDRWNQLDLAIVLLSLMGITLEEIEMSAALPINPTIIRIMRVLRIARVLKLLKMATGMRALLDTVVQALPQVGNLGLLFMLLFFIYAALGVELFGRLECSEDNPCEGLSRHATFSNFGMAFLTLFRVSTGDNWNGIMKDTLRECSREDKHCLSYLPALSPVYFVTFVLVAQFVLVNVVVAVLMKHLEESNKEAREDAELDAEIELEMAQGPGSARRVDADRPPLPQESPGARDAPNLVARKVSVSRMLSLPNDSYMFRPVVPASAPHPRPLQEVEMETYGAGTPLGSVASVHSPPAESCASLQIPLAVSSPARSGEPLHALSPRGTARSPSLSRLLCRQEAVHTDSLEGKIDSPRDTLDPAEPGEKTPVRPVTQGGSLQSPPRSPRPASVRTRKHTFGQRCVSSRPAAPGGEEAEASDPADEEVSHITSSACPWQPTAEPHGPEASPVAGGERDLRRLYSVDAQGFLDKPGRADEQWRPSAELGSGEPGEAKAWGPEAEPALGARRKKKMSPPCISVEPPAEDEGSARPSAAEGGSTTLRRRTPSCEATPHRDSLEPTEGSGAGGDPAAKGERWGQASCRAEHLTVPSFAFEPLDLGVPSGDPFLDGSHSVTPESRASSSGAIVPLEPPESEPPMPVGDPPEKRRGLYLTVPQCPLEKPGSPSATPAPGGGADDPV

Row | Structure (SMILES) | IC50
1 | O=C(N[C@@H]1CCN(c2ccc(C(F)(F)F)cc2)C1)C1CC1c1nc2ccccc2[nH]1 (single isomer, unassigned) [Example 52] | 110 nM
2 | O=C(N[C@H]1CCN(c2ccc(C(F)(F)F)cc2)C1)C1CC1c1nc2ccccc2[nH]1 (single isomer, unassigned) [Example 53] | 1000 nM
3 | O=C(N[C@@H]1CCCN(c2ccc(C(F)(F)F)nc2)C1)C1CC1c1nc2ccccc2[nH]1 (single isomer, unassigned) [Example 63A] | 190 nM
4 | O=C(N[C@@H]1CCCN(c2ccc(C(F)(F)F)nc2)C1)C1CC1c1nc2ccccc2[nH]1 (single isomer, unassigned) [Example 63B] | > 10000 nM
5 | O=C(N[C@@H]1CCN(c2ccc(C(F)(F)F)nc2)C1)C1CC1c1c[nH]c2ccccc12 (single isomer, unassigned) [Example 66] | 69 nM
6 | O=C(N[C@@H]1CCN(c2cncc(C(F)(F)F)c2)C1)C1CC1c1cc(Cl)cc(Cl)c1 (single isomer, unassigned) [Example 99A] | 90 nM
7 | O=C(N[C@@H]1CCN(c2cncc(C(F)(F)F)c2)C1)C1CC1c1cc(Cl)cc(Cl)c1 (single isomer, unassigned) [Example 99B] | 480 nM
8 | O=C(N[C@@H]1CCN(c2cncc(C(F)(F)F)c2)C1)C1CC1c1ccc(Br)cc1 (single isomer, unassigned) [Example 100A] | 9.3 nM
9 | O=C(N[C@@H]1CCN(c2cncc(C(F)(F)F)c2)C1)C1CC1c1ccc(Br)cc1 (single isomer, unassigned) [Example 100B] | 460 nM
10 | O=C(N[C@@H]1CCN(c2cncc(C(F)(F)F)c2)C1)C1CC1c1ccc(C2CC2)cc1 (single isomer, unassigned) [Example 106A] | 11 nM
11 | O=C(N[C@@H]1CCN(c2cncc(C(F)(F)F)c2)C1)C1CC1c1ccc(C2CC2)cc1 (single isomer, unassigned) [Example 106B] | 400 nM
12 | O=C(N[C@@H]1CCN(c2cncc(C(F)(F)F)c2)C1)C1CC1c1ccc(F)c(F)c1 (single isomer, unassigned) [Example 107A] | 4.7 nM
13 | O=C(N[C@@H]1CCN(c2cncc(C(F)(F)F)c2)C1)C1CC1c1ccc(F)c(F)c1 (single isomer, unassigned) [Example 107B] | 560 nM
14 | O=C(N[C@@H]1CCN(c2cncc(C(F)(F)F)c2)C1)C1CC1c1ccc(Cl)cc1 (single isomer, unassigned) [Example 108A] | 5.7 nM
15 | O=C(N[C@@H]1CCN(c2cncc(C(F)(F)F)c2)C1)C1CC1c1ccc(Cl)cc1 (single isomer, unassigned) [Example 108B] | 200 nM
16 | NC(C(=O)N[C@@H]1CCN(c2cncc(C(F)(F)F)c2)C1)c1ccc(C2CC2)cc1 (single isomer, unassigned) [Example 137A] | 100 nM
17 | NC(C(=O)N[C@@H]1CCN(c2cncc(C(F)(F)F)c2)C1)c1ccc(C2CC2)cc1 (single isomer, unassigned) [Example 137B] | 820 nM
18 | O=C(Cc1ccc(N2CC3CC2CO3)cc1)N[C@@H]1CCN(c2cncc(C(F)(F)F)c2)C1 (single isomer, unassigned) [Example 165] | 30 nM

Row | Structure (SMILES) | IC50
19 | O=C(Cc1ccc(N2CC3CC2CO3)cc1)N[C@@H]1CCN(c2ccc(C(F)(F)F)nc2)C1 (single isomer, unassigned) [Example 166] | 220 nM
20 | O=C(Cc1ccc(C2CC2)cc1)N[C@@H]1CCN(c2cncc(C(F)(F)F)c2)C1 [Example 1, (R)-2-(4-cyclopropylphenyl)-N-(1-(5-(trifluoromethyl)pyridin-3-yl)pyrrolidin-3-yl)acetamide] | 13 nM
21 | O=C(Cc1ccc(C(F)(F)F)cn1)N[C@@H]1CCN(c2cncc(C(F)(F)F)c2)C1 [Example 2, (R)-2-(5-(trifluoromethyl)pyridin-2-yl)-N-(1-(5-(trifluoromethyl)pyridin-3-yl)pyrrolidin-3-yl)acetamide] | 1300 nM
22 | CC(C)c1ccc(CC(=O)N[C@@H]2CCN(c3cnc(C(F)(F)F)nc3)C2)cc1 [Example 3, (R)-2-(4-isopropylphenyl)-N-(1-(2-(trifluoromethyl)pyrimidin-5-yl)pyrrolidin-3-yl)acetamide] | 850 nM
23 | CC(C)c1ccc(CC(=O)N[C@@H]2CCN(c3cncc(C(F)(F)F)c3)C2)cc1 [Example 4, (R)-2-(4-isopropylphenyl)-N-(1-(5-(trifluoromethyl)pyridin-3-yl)pyrrolidin-3-yl)acetamide] | 14 nM
24 | O=C(Cc1ccc(C2CC2)cc1)N[C@H]1CN(c2cncc(C(F)(F)F)c2)C[C@@H]1O [Example 5, 2-(4-cyclopropylphenyl)-N-((3S,4S)-4-hydroxy-1-(5-(trifluoromethyl)pyridin-3-yl)pyrrolidin-3-yl)acetamide] | 290 nM
25 | O=C(Cc1ccc(C2CC2)cc1)N[C@H]1CN(c2cncc(C(F)(F)F)c2)CC12CC2 [Example 6, (R)-2-(4-cyclopropylphenyl)-N-(5-(5-(trifluoromethyl)pyridin-3-yl)-5-azaspiro[2.4]heptan-7-yl) acetamide] | 130 nM
26 | O=C(Cc1ccc(C2CC2)cc1)N[C@H]1CN(c2ccc(C(F)(F)F)nc2)CC12CC2 [Example 7, (R)-2-(4-cyclopropylphenyl)-N-(5-(6-(trifluoromethyl)pyridin-3-yl)-5-azaspiro[2.4]heptan-7-yl) acetamide] | 97 nM
27 | O=C(Cc1ccc(C2CC2)cc1)N[C@H]1CN(c2nc(C(F)(F)F)cs2)CC12CC2 [Example 8, (R)-2-(4-cyclopropylphenyl)-N-(5-(4-(trifluoromethyl)thiazol-2-yl)-5-azaspiro[2.4]heptan-7-yl) acetamide] | 200 nM
28 | C[C@H]1C[C@@H](NC(=O)Cc2ccc(C3CC3)cc2)CN1c1cncc(C(F)(F)F)c1 [Example 9, 2-(4-cyclopropylphenyl)-N-((3R,5S)-5-methyl-1-(5-(trifluoromethyl)pyridin-3-yl)pyrrolidin-3-yl)acetamide] | 480 nM
29 | O=C(Cc1ccc(C2CC2)cc1)N[C@]12CC1CN(c1cncc(C(F)(F)F)c1)C2 (some centres unmarked) [Example 10, 2-(4-cyclopropylphenyl)-N-(3-(5-(trifluoromethyl)pyridin-3-yl)-3-azabicyclo[3.1.0]hexan-1-yl) acetamide] | 410 nM
30 | O=C(Cc1ccc(C(F)(F)F)cc1)N[C@@H]1CCN(c2cncc(C(F)(F)F)n2)C1 [Example 11, (R)-2-(4-(trifluoromethyl)phenyl)-N-(1-(6-(trifluoromethyl)pyrazin-2-yl)pyrrolidin-3-yl)acetamide] | 180 nM
31 | N#Cc1ncc(N2CC[C@@H](NC(=O)Cc3ccc(C4CC4)cc3)C2)cc1C(F)(F)F [Example 12, (R)—N-(1-(6-cyano-5-(trifluoromethyl)pyridin-3-yl)pyrrolidin-3-yl)-2-(4-cyclopropylphenyl)acetamide] | 280 nM
32 | COC(=O)C1(NC(=O)Cc2ccc(C3CC3)cc2)CCN(c2cncc(C(F)(F)F)c2)C1 (centres unmarked) [Example 13, Methyl 3-(2-(4-cyclopropylphenyl)acetamido)-1-(5-(trifluoromethyl)pyridin-3-yl)pyrrolidine-3-carboxylate] | 18 nM
33 | O=C(Cc1ccc(C2CC2)cc1)NC1(C(=O)O)CCN(c2cncc(C(F)(F)F)c2)C1 (centres unmarked) [Example 14, 3-(2-(4-cyclopropylphenyl)acetamido)-1-(5-(trifluoromethyl)pyridin-3-yl)pyrrolidine-3-carboxylic acid] | 5200 nM
34 | O=C(Cc1ccc2cn[nH]c2c1)N[C@@H]1CCN(c2cncc(C(F)(F)F)c2)C1 [Example 15, (R)-2-(1H-indazol-6-yl)-N-(1-(5-(trifluoromethyl)pyridin-3-yl)pyrrolidin-3-yl)acetamide] | 370 nM
35 | O=C(Cc1ccc(C2CC2)cc1)N[C@@H]1CCN(c2nc(C(F)(F)F)cs2)C1 [Example 16, (R)-2-(4-cyclopropylphenyl)-N-(1-(4-(trifluoromethyl)thiazol-2-yl)pyrrolidin-3-yl)acetamide] | 320 nM
